In PubChem BioAssay (NCI):
“And” between values parts separate entries of the source, which are not always exact repeats. Equal values may be shown once.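 These data come from cells grown in 96-well plates and exposed to compound for 48 hours at five concentrations. GI50 = concentration required for 50% inhibition of growth. At the TGI there is no net growth.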

Legend:
Assay in all cases: NCI-60 cell line screen, 48 h
MCF7 breast = system: MCF7 breast
SK-MEL-28 melanoma = system: SK-MEL-28 melanoma
OVCAR-5 ovarian = system: OVCAR-5 ovarian
MOLT-4 leukemia = system: MOLT-4 leukemia
HL-60(TB) leukemia = system: HL-60(TB) leukemia
HCC-2998 colon = system: HCC-2998 colon
OVCAR-4 ovarian = system: OVCAR-4 ovarian
MDA-MB-231 breast = system: MDA-MB-231 breast
HT29 colon = system: HT29 colon
SK-MEL-5 melanoma = system: SK-MEL-5 melanoma

Structure (SMILES) | TGI (MCF7 breast) | TGI (SK-MEL-28 melanoma) | TGI (OVCAR-5 ovarian) | TGI (MOLT-4 leukemia) | TGI (HL-60(TB) leukemia) [µM] | TGI (HCC-2998 colon) | TGI (OVCAR-4 ovarian) [µM] | TGI (MDA-MB-231 breast) | TGI (HT29 colon) | TGI (SK-MEL-5 melanoma) | GI50 (MCF7 breast) [µM] | GI50 (SK-MEL-28 melanoma) [µM] | GI50 (OVCAR-5 ovarian) [µM] | GI50 (MOLT-4 leukemia) | GI50 (HCC-2998 colon) [µM] | GI50 (MDA-MB-231 breast) [µM] | GI50 (HT29 colon) [µM] | GI50 (SK-MEL-5 melanoma) [µM]
[O-]/[N+](=C\c1ccccc1OC(=S)S)c1ccc(Cl)cc1 | 64.8 µM | > 100 µM | > 100 µM | > 100 µM | 45 | > 100 µM | 37 | 34.7 µM | > 100 µM | > 100 µM | – | – | – | – | – | – | – | –
CC(=O)OC(Cn1cncn1)(Cn1cncn1)c1ccc(Cl)cc1Cl | > 100 µM | > 100 µM | > 100 µM | > 100 µM | > 100 | > 100 µM | > 100 | > 100 µM | > 100 µM | > 100 µM | – | – | – | – | – | – | – | –
C[n+]1c(-c2ccc(/C=C/C=N\NC(=O)c3ccc(C(=O)N/N=C\C=C\c4ccc(-c5cn6ccccc6[n+]5C)cc4)cc3)cc2)cn2ccccc21 | > 100 µM | > 100 µM | > 100 µM | > 100 µM | > 65.7 | > 100 µM | > 100 | > 58.8 µM | > 100 µM | > 100 µM | – | – | – | – | – | – | – | –
C=Cc1ccccc1C1(O)C=CC(OC)(OC)C=C1 | 13.3 µM | 20.8 µM | 20.2 µM | 10.6 µM | 6.38 | 33.4 µM | 37.2 | 24.8 µM | 11.7 µM | 26.9 µM | – | – | – | – | – | – | – | –
CC(=O)OC1CCC2C3CCc4c(C)ccc(OS(=O)(=O)c5ccccc5)c4C3CCC12C (stereo not drawn) | > 100 µM | > 100 µM | > 100 µM | > 100 µM | > 100 | > 100 µM | 88.4 | > 100 µM | > 100 µM | 23.1 µM | – | – | – | – | – | – | – | –
C=C(CN(C)C)C(=O)c1ccccc1[N+](=O)[O-] | 31.1 µM and 24.5 µM | 34.1 µM and 51.6 µM | 29.4 µM and 31.1 µM | 26.7 µM and 5.83 µM | 8.2 | > 56.5 µM and 29.2 µM | 41.1 | 38 µM and 34.1 µM | 39.1 µM and 16.1 µM | 33.4 µM and 39.6 µM | 5.02 | 18.8 | 16.3 | 4.01 µM and 0.606 µM | 15.3 | 12.6 | 3.31 | 16.9
CC(=O)c1cnc2oc3ccc(O)cc3c2c1-c1ccccc1 | > 100 µM | > 100 µM | > 100 µM | > 100 µM | > 100 | > 100 µM | 36.6 | > 100 µM | > 100 µM | > 100 µM | – | – | – | – | – | – | – | –
COC(=O)c1cc(C#N)[nH]c1-c1cc(Br)cs1 | 33.7 µM | 36.5 µM | 55.7 µM | 50.8 µM | 38.5 | > 57.5 µM | > 57.7 | 51.7 µM | 31.7 µM | 21.2 µM | – | – | – | – | – | – | – | –
NC(=O)N/N=C1\CC2C3CC4C2C4C13 (stereo not drawn) | > 100 µM | > 100 µM | > 100 µM | > 100 µM | > 100 | > 100 µM | > 100 | > 100 µM | > 100 µM | > 100 µM | – | – | – | – | – | – | – | –
COc1ccc(N(C(=O)Nc2ccc(Cl)c(Cl)c2)C2c3cccn3C(=O)N2c2ccc(Cl)c(Cl)c2)cc1 (stereo not drawn) | > 100 µM | > 100 µM | > 100 µM | > 100 µM | > 100 | > 100 µM | > 100 | > 100 µM | > 100 µM | > 100 µM | – | – | – | – | – | – | – | –
CC(C)(C)c1cc(C(=O)/C=C/c2ccc3c(c2)OCO3)cc(C(C)(C)C)c1O | > 100 µM | > 100 µM | > 76.9 µM | > 26.6 µM | 13.9 | 3.74 µM | 78.7 | 37.7 µM | 28 µM | 16.6 µM | – | – | – | – | – | – | – | –
